Measurements taken from patent US20050080122A1, “Anti-viral compounds” (priority 2002, published 2005).

What was measured:
[1] = tested on: Rhinovirus; assay: Antiviral assay: virus yield reduction measured by plaque assay in infected cells; assay type: cell-based
Text: (§1) Representative viruses of the Rhinovirus and Enterovirus genera were chosen for study: Rhinovirus 2 (RV2), Rhinovirus 14 (RV14), Coxsackievirus […] (CVB3) and Echovirus 11 (EV11). Each virus is propogated in two different cell lines as follows: RV2 and RV14 in HEL and HeLa cells, CVB3 in BS-C-1 and HeLa (human cervical adenocarcinoma) cells, EV11 in BS-C-1 (African green monkey kidney, primary) and HEL (human embryonic lung, primary) cells. Propogation of virus strains in two different cell lines is performed as different cell types may utilize different ion transport pathways.
(§2) Antiviral assays are determined as follows. Monolayers of HeLa T cells (human cervical adenocarcinoma) in 12-well plates are infected with 0.01 plaque forming units per cell of Rhinovirus 2 in minimum essential medium with Earle's salts (MEM) supplemented with 1% v/v fetal bovine serum (FBS) or mock-infected with medium for 1 hour. […] Cells are further incubated for 70 hours at 34° C., until extensive cell death is observed in the no drug control. Cells plus culture supernatants are freeze-thawed and virus titre in each sample is determined by plaque assay.

[2] = tested on: Enterovirus; assay: as above; assay type: cell-based
Text: as §1, §2

[3] = tested on: HeLa cells; assay: Cytotoxicity on uninfected cells, Alamar Blue metabolic activity; settings: uninfected HeLa T cells, 70 hours at 34° C.

Structure (SMILES)	effectiveness against Rhinovirus [1]	effectiveness against Enterovirus [2]	toxicity to HeLa cells compared to the inhibition of virus production [3]
COc1ccc(CCN(C)CCCC(C#N)(c2ccc(OC)c(OC)c2)C(C)C)cc1OC (centres unmarked) [Verapamil]	particularly effective		
N=C(NCc1ccccc1)NC(=O)c1nc(Cl)c(N)nc1N [Benzamil]		particularly effective	
CCN(c1nc(N)c(C(=O)NC(=N)N)nc1Cl)C(C)C [EIPA, 5-(N-ethyl-N-isopropyl)amiloride]	particularly effective		far less toxic
N=C(N)NC(=O)c1nc(Cl)c(N)nc1N [Amiloride]		particularly effective	
